{"source": "paper PMC6018403", "about": "(Frontiers in Pharmacology, 2018)", "experiment": "in vivo", "parameters": "species or system Sprague-Dawley rats", "conditions": "male, Sprague-Dawley, rat, po", "protocol": "For the PK study of berberine and glycyrrhizic acid, rats were randomly divided into four groups (n = 8 for each group) before oral administration. Two groups were respectively treated with 59.4 mg/kg of berberine and 84.8 mg/kg of glycyrrhizic acid; the third group was treated with 59.4 mg/kg of berberine and 2.36 g/kg of licorice water decoction (0.5 g/mL); and the last group received 59.4 mg/kg of berberine and 84.8 mg/kg of glycyrrhizic acid. The dosage of single compounds were calculated according to their contents in the administrated GQD extract. Sample collection were the same as described for GQD. […] The plasma samples were stored at −80°C. Samples were prepared for LC/MS/MS analysis as described in our previous study (Qiao et al., [2012]), as described in Supplemental Data. LC/MS/MS calibration and quantitation data were processed with Xcalibur 2.0.7 software (ThermoFisher). The maximal plasma concentrations (Cmax) and their time of occurrence (Tmax) were obtained directly from the measured data. Other pharmacokinetic parameters were calculated by non-compartment or compartment models using WinNonlin® software (v6.1, Pharsight). Unless otherwise stated, results were expressed as the mean ± SD. Statistical significance in differences of the means was determined by Student's t–test, with a significance level of P < 0.05.", "data": [{"smiles": "COc1ccc2cc3[n+](cc2c1OC)CCc1cc2c(cc1-3)OCO2", "note": "[Compound 24, berberine]", "values": [{"measurement": "increase of AUClast of berberine by GLY", "result": "around 6 folds"}, {"measurement": "Cmax", "setting": "59.4 mg/kg", "result": "12.2 ± 4.85", "unit": "ng/mL"}, {"measurement": "Cmax of berberine", "setting": "59.4 mg/kg", "result": "117.12 ± 90.22", "unit": "ng/mL"}, {"measurement": "T1/2 of berberine", "setting": "59.4 mg/kg", "result": "8.47 ± 2.90", "unit": "h"}, {"measurement": "half-life", "setting": "59.4 mg/kg, T1/2 of berberine", "result": "7.53 ± 1.65", "unit": "h"}]}]}
